Laboratory results published in ChEMBL document CHEMBL1139224, “Discovery and metabolic stabilization of potent and selective 2-amino-N-(adamant-2-yl) acetamide 11beta-hydroxysteroid dehydrogenase type 1 inhibitors” (J Med Chem, 2007).

Key:
[1] = molecular target: 11-beta-hydroxysteroid dehydrogenase 1 (Rattus norvegicus, UniProt P16232); assay: Inhibitory activity against rat 11beta-HSD1
[2] = molecular target: T1, 11-beta-hydroxysteroid dehydrogenase type 2 (Rattus norvegicus, UniProt P50233); assay: Inhibitory activity against rat 11beta-HSD2
T1 sequence (P50233 whole entry): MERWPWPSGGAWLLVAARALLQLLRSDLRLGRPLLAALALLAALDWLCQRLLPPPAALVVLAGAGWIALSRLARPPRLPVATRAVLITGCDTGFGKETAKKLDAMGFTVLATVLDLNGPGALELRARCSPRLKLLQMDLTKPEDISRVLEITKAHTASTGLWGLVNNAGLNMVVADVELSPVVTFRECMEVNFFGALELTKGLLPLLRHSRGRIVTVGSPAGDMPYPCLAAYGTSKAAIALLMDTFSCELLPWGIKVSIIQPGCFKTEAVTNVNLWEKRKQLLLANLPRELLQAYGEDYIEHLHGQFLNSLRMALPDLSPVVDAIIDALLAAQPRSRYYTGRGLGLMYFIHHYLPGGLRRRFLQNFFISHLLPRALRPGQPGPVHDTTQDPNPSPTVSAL

[3] = Intrinsic clearance in rat liver microsomes at 1 uM; assay type: ADME, Microsome
[4] = molecular target: T2, 11-beta-hydroxysteroid dehydrogenase 1 (Homo sapiens, UniProt P28845); assay: Inhibition of human 11beta-HSD1 expressed in Escherichia coli by SPA
[5] = molecular target: 11-beta-hydroxysteroid dehydrogenase 1 (Mus musculus, UniProt P50172); assay: Inhibition of mouse 11beta-HSD1 expressed in Escherichia coli by SPA
[6] = molecular target: T2, 11-beta-hydroxysteroid dehydrogenase 1; assay: Inhibition of human 11beta-HSD1 expressed in HEK293 cells by FPIA; assay type: cell-based
[7] = Intrinsic clearance in human liver microsomes at 1 uM; assay type: ADME, Microsome
[8] = Intrinsic clearance in mouse liver microsomes at 1 uM; assay type: ADME, Microsome
[9] = molecular target: T3, 11-beta-hydroxysteroid dehydrogenase type 2 (Homo sapiens, UniProt P80365); assay: Inhibitory activity against human 11beta-HSD2 by SPA
T3 sequence (P80365 whole entry): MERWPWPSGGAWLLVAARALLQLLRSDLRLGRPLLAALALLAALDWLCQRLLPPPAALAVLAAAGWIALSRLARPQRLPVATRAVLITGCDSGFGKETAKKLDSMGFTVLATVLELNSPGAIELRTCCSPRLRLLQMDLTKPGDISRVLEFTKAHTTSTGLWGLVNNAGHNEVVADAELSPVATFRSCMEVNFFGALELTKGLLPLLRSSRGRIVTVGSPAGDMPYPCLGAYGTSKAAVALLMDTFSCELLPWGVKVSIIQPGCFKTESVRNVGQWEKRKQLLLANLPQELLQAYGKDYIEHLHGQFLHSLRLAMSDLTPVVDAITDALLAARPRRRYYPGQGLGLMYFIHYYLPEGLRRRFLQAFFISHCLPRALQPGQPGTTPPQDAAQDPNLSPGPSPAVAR

[10] = molecular target: T4, 11-beta-hydroxysteroid dehydrogenase type 2 (Mus musculus, UniProt P51661); assay: Inhibitory activity against mouse 11beta-HSD2 by SPA
T4 sequence (P51661 whole entry): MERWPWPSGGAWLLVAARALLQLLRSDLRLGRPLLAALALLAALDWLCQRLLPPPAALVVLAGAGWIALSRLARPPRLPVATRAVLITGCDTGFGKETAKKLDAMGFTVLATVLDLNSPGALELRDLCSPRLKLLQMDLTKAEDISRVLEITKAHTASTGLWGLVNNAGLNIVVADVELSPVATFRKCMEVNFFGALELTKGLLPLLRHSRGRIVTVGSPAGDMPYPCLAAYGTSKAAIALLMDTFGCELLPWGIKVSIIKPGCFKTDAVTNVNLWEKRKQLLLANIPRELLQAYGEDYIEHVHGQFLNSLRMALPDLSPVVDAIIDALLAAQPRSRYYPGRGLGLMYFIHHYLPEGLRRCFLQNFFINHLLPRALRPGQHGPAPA

[11] = Half life in mouse at 10 mg/kg, iv; assay type: ADME, organism-based; set-up: dose 10 mg/kg, route intravenous; conditions: in vivo
[12] = Volume of distribution in mouse at 10 mg/kg, iv; assay type: ADME, organism-based; set-up: dose 10 mg/kg, route intravenous; conditions: in vivo, read-out: Vdss
[13] = Plasma clearance in mouse at 10 mg/kg, iv; assay type: ADME, organism-based; set-up: dose 10 mg/kg, route intravenous
[14] = Half life in mouse at 10 mg/kg, po; assay type: ADME, organism-based; set-up: dose 10 mg/kg, route oral; conditions: in vivo
Mus musculus = assay: AUC in mouse at 10 mg/kg, po; assay type: ADME, organism-based, Plasma; set-up: dose 10 mg/kg, route oral; conditions: in vivo
[15] = Oral bioavailability in mouse at 10 mg/kg, po; assay type: ADME, organism-based; conditions: in vivo
[16] = Half life in rat at 5 mg/kg, iv; assay type: ADME, organism-based; set-up: dose 5 mg/kg, route intravenous; conditions: in vivo
[17] = Volume of distribution in rat at 5 mg/kg, iv; assay type: ADME, organism-based; set-up: dose 5 mg/kg, route intravenous; conditions: in vivo, read-out: Vss
[18] = Plasma clearance in rat at 5 mg/kg, iv; assay type: ADME, organism-based; set-up: dose 5 mg/kg, route intravenous
[19] = Half life in rat at 5 mg/kg, po; assay type: ADME, organism-based; set-up: dose 5 mg/kg, route oral; conditions: in vivo
Rattus norvegicus = assay: Area under the curve in rat at 5 mg/kg, po; assay type: ADME, organism-based; set-up: dose 5 mg/kg, route oral; conditions: in vivo
[20] = Oral bioavailability in rat at 5 mg/kg, po; assay type: ADME, organism-based; conditions: in vivo

11-beta-hydroxysteroid dehydrogenase 1 (Mus musculus, UniProt P50172), sequence (P50172 whole entry): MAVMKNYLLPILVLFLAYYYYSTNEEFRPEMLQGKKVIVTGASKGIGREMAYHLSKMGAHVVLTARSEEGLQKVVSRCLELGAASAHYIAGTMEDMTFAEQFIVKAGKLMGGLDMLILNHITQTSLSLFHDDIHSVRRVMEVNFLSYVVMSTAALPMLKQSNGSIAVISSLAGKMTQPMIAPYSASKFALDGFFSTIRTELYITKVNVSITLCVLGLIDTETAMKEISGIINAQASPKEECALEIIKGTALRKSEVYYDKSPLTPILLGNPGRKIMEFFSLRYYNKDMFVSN
T2 sequence (P28845 whole entry): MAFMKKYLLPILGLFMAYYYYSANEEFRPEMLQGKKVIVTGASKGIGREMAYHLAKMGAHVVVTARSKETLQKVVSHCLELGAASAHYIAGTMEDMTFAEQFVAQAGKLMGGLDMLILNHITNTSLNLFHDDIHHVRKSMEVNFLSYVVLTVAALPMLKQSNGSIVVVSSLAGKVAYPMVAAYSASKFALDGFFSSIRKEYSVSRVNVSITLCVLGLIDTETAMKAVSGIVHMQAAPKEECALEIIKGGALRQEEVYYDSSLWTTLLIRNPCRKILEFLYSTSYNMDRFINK
11-beta-hydroxysteroid dehydrogenase 1 (Rattus norvegicus, UniProt P16232), sequence (P16232 whole entry): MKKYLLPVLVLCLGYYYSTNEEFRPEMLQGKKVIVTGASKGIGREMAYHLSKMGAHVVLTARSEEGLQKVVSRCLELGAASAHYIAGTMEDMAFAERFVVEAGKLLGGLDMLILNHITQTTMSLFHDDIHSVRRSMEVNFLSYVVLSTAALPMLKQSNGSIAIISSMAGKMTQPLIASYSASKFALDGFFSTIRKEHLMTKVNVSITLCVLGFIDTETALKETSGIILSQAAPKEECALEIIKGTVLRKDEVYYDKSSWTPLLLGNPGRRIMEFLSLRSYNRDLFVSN

Ki [4] | Ki [5] | IC50 [6] | CLint scaled at 1 µM [7] | CLint scaled at 1 µM [8] | IC50 [9] | IC50 [10] | Structure (SMILES) | further results
3 nM | 2 nM | 35 nM | < 16.7 mL/min/kg | 1000 mL/min/kg | > 100000 nM | > 100000 nM | O=C(CN1CC[C@H](C(F)(F)F)C1)N[C@H]1C2CC3CC1C[C@](O)(C3)C2 | Ki [1]: 3 nM; IC50 [2]: > 100000 nM; CLint scaled at 1 µM [3]: 467 mL/min/kg
180 nM | 110 nM | > 10000 nM | 217 mL/min/kg | 5130 mL/min/kg | > 100000 nM | > 100000 nM | O=C(CN1CCN(c2ccc(C(F)(F)F)cn2)CC1)NC1C2CC3CC(C2)CC1(O)C3 (racemic) | –
26 nM | 110 nM | 450 nM | 233 mL/min/kg | < 100 mL/min/kg | > 100000 nM | > 100000 nM | O=C(CN1CCN(c2ccc(C(F)(F)F)cn2)CC1)N[C@H]1C2CC3CC1C[C@@](F)(C3)C2 | –
32 nM | 120 nM | 550 nM | 33.3 mL/min/kg | 2270 mL/min/kg | > 20000 nM | > 100000 nM | O=C(CN1CCN(c2ccc(C(F)(F)F)cn2)CC1)N[C@H]1C2CC3CC1C[C@](F)(C3)C2 | –
4 nM | 5 nM | 21 nM | 33.3 mL/min/kg | 333 mL/min/kg | 62000 nM | > 100000 nM | CC(C(=O)N[C@H]1C2CC3CC1C[C@](O)(C3)C2)N1CCc2ccc3c(c2CC1)OCO3 (some centres not stated) | Ki [1]: 13 nM; IC50 [2]: > 100000 nM; CLint scaled at 1 µM [3]: 567 mL/min/kg; half-life [11]: 0.5 h; Vd [12]: 2.7 L/kg; clearance [13]: 155 mL/min/kg; half-life [14]: 4.2 h; AUC (Mus musculus): 0.2 ug/hr.ml; bioavailability [15]: 19%
– | 180 nM | – | < 16.7 mL/min/kg | 1000 mL/min/kg | – | – | CO[C@]12CC3C[C@](O)(CC(C1)C3NC(=O)C(C)(C)N1CCN(c3ccc(C(F)(F)F)cn3)CC1)C2 (some centres not stated) | –
4 nM | 5 nM | 26 nM | 16.7 mL/min/kg | – | – | – | C[C@@H](C(=O)N[C@H]1C2CC3CC1C[C@](O)(C3)C2)N1CCN(c2ccc(C(F)(F)F)cn2)CC1 (stereo in doubt; (R)-22f) | –
8 nM | 34 nM | 130 nM | 16.7 mL/min/kg | 683 mL/min/kg | > 100000 nM | > 100000 nM | O=C(CN1CCN(c2ccc(C(F)(F)F)cn2)CC1)N[C@H]1C2CC3CC1C[C@](O)(C3)C2 | Ki [1]: 6 nM; IC50 [2]: > 100000 nM; CLint scaled at 1 µM [3]: < 50 mL/min/kg; half-life [16]: 1.4 h; Vd [17]: 2.2 L/kg; clearance [18]: 23.3 mL/min/kg; half-life [19]: 1.3 h; AUC (Rattus norvegicus): 2.4 ug/hr.ml; bioavailability [20]: 65%
– | 51 nM | – | 167 mL/min/kg | 2370 mL/min/kg | – | – | O=C(CN1CCN(c2ccc(C(F)(F)F)cn2)CC1)NC1C2CC3CC(C2)CC1C3 (configuration not stated) | –
– | 470 nM | – | < 16.7 mL/min/kg | 383 mL/min/kg | – | – | CC(C)(C(=O)N[C@H]1C2C[C@@]3(O)CC1C[C@@](O)(C2)C3)N1CCN(c2ccc(C(F)(F)F)cn2)CC1 | –
– | 4100 nM | – | < 16.7 mL/min/kg | < 100 mL/min/kg | – | – | CC(C(=O)N[C@H]1C2C[C@@]3(O)CC1C[C@@](O)(C2)C3)N1CCN(c2ccc(C(F)(F)F)cn2)CC1 (mixture of isomers) | –
7 nM | 260 nM | 36 nM | – | – | – | – | C[C@@H](C(=O)N[C@H]1C2CC3CC1C[C@](O)(C3)C2)N1CCN(c2ccc(C(F)(F)F)cn2)CC1 (stereo in doubt; (S)-22f) | –
